In experiment [1] the test system is antibodies in sera from SARS patients (sera 1a, 1b, 2, 6, 37, 62, London, SARS-yellow, SARS-green). Format: binding, human. The arrangement: Binding of serum 6 to linear peptides of protein X1 of SARS-CoV Urbani / Binding of serum 37 to linear peptides of protein X1 of SARS-CoV Urbani / Binding of serum 6 to looped/cyclic peptide (PEPSCAN-ELISA) / Binding of serum 37 to looped/cyclic peptide (PEPSCAN-ELISA) / Binding of serum 37 to looped/cyclic peptides of protein X1 of SARS-CoV Urbani / Binding of serum 6 to linear peptides of protein X2 / Binding of serum 37 to linear peptides of protein X2 / Binding of serum 37 to looped/cyclic peptides of protein X2 of SARS-CoV Urbani / Binding of serum 6 to linear peptides of protein M of SARS-CoV Urbani / Binding of serum 37 to linear peptides of protein M of SARS-CoV Urbani / Binding of serum 6 to looped/cyclic peptides of protein M of SARS-CoV Urbani / Binding of serum 37 to looped/cyclic peptides of protein M of SARS-CoV Urbani / Binding of serum 6 to linear peptides of protein X3 of SARS-CoV Urbani / Binding of serum 37 to linear peptides of protein X3 of SARS-CoV Urbani / Binding of serum 37 to looped/cyclic peptides of protein X3 of SARS-CoV Urbani / Binding of serum 6 to linear peptides of protein X4 of SARS-CoV Urbani / Binding of serum 37 to linear peptides of protein X4 of SARS-CoV Urbani / Binding of serum 37 to looped/cyclic peptides of protein X4 of SARS-CoV Urbani / Binding of serum 6 to linear peptides of protein X5 of SARS-CoV Urbani / Binding of serum 37 to linear peptides of protein X5 of SARS-CoV Urbani / Binding of serum 37 to looped/cyclic peptides of protein X5 of SARS-CoV Urbani / Binding of serum 6 to linear peptides of protein N of SARS-CoV Urbani / Binding of serum 37 to linear peptides of protein N of SARS-CoV Urbani / Binding of serum 6 to linear peptide (PEPSCAN-ELISA) / Binding of serum 1a to looped/cyclic peptides of protein N of SARS-CoV Urbani / Binding of serum 1b to looped/cyclic peptides of protein N of SARS-CoV Urbani / Binding of serum 2 to looped/cyclic peptides of protein N of SARS-CoV Urbani / Binding of serum 6 to looped/cyclic peptides of protein N of SARS-CoV Urbani / Binding of serum 37 to looped/cyclic peptides of protein N of SARS-CoV Urbani / Binding of serum 62 to looped/cyclic peptides of protein N of SARS-CoV Urbani / Binding of serum London to looped/cyclic peptides of protein N of SARS-CoV Urbani / Binding of serum SARS-green to looped/cyclic peptides of protein N of SARS-CoV Urbani: unit not given here.

Experiment [2] relates to control sera (pooled serum of ten healthy LUMC hospital workers; commercial negative donor pooled serum from the Dutch bloodbank). It is filed as binding, human. The arrangement: Binding of Control serum LUMC to linear peptides / Binding of Control serum Blood-bank to linear peptides / Binding of Control serum LUMC to looped peptides / Binding of Control Serum Blood-Bank to Looped peptides / Binding of Control serum LUMC to linear peptides of the protein M of SARS-CoV Urbani / Binding of Control serum Blood-bank to linear peptides of the protein M of SARS-CoV Urbani / Binding of Control serum LUMC to looped peptides of the protein M of SARS-CoV Urbani / Binding of Control Serum Blood-Bank to Looped peptides of the protein M of SARS-CoV Urbani: unit not given here.

Experiment [3] has as its system rabbit serum obtained by immunizing a rabbit with the SARS-CoV strain Frankfurt 1. Format: binding. Details: Binding of a rabbit serum to linear peptides / Binding of a rabbit serum to looped peptides / Rabbit serum linear peptides / Rabbit serum looped peptides / Binding of a rabbit serum to linear peptides of protein N of SARS-CoV Urbani (Rabbit serum linear peptides) / Binding of a rabbit serum to looped/cyclic peptides of protein N of SARS-CoV Urbani (Rabbit serum looped peptides): unit not given here.

On to ITVSQIQLSLLKVTA, for which, in experiment [1], the “Binding of serum 1a to linear peptides of protein X2” value is recorded as 0.6, the “Binding of serum 1a to looped/cyclic peptides of protein X2 of SARS-CoV Urbani” value is recorded as 0.5, the “Binding of serum 1b to linear peptides of protein X2” value is recorded as 0.5 and the “Binding of serum 1b to looped/cyclic peptides of protein X2 of SARS-CoV Urbani” value came out at 0.5. Also, in experiment [1], the “Binding of serum 2 to linear peptides of protein X2” value was found to be 0.4, the “Binding of serum 2 to looped/cyclic peptides of protein X2 of SARS-CoV Urbani” value was 0.4, the “Binding of serum 6 to linear peptides of protein X2” value is recorded as 0.5 and the “Binding of serum 6 to looped/cyclic peptides of protein X2 of SARS-CoV Urbani” value was 1.4. In experiment [1], the “Binding of serum 37 to linear peptides of protein X2” value came out at 0.6, the “Binding of serum 37 to looped/cyclic peptides of protein X2 of SARS-CoV Urbani” value worked out at 0.5, the “Binding of serum 62 to linear peptides of protein X2” value amounted to 0.4 and the “Binding of serum 62 to looped/cyclic peptides of protein X2 of SARS-CoV Urbani” value was found to be 0.5. For the same sequence, in experiment [1], the “Binding of serum London to linear peptides of protein X2” value worked out at 0.4, the “Binding of serum London to looped/cyclic peptides of protein X2 of SARS-CoV Urbani” value amounted to 1.4, the “Binding of serum SARS-green to linear peptides of protein X2” value turned out to be 0.1 and the “Binding of serum SARS-green to looped/cyclic peptides of protein X2 of SARS-CoV Urbani” value worked out at 0.3. In experiment [1], the “Binding of serum SARS-yellow to linear peptides of protein X2” value is given as 0.7 and the “Binding of serum SARS-yellow to looped/cyclic peptides of protein X2 of SARS-CoV Urbani” value turned out to be 0.6. For the same sequence, in experiment [2], the “Binding of Control Serum Blood-Bank to Looped peptides” value worked out at 0.6, the “Binding of Control serum Blood-bank to linear peptides” value is on record as 0.5, the “Binding of Control serum LUMC to linear peptides” value stood at 0.6 and the “Binding of Control serum LUMC to looped peptides” value was determined as 0.7. In addition, in experiment [3], the “Binding of a rabbit serum to linear peptides” value was determined as 0.7 and the “Binding of a rabbit serum to looped peptides” value worked out at 0.4.
Regarding IVAALVFLILCFTIK, in experiment [1], the “Binding of serum 1a to linear peptides of protein X4 of SARS-CoV Urbani” value is listed as 0.6, the “Binding of serum 1a to looped/cyclic peptides of protein X4 of SARS-CoV Urbani” value was 0.7, the “Binding of serum 1b to linear peptides of protein X4 of SARS-CoV Urbani” value is recorded as 0.6 and the “Binding of serum 1b to looped/cyclic peptides of protein X4 of SARS-CoV Urbani” value is 0.4. Further, in experiment [1], the “Binding of serum 2 to linear peptides of protein X4 of SARS-CoV Urbani” value came to 0.4, the “Binding of serum 2 to looped/cyclic peptides of protein X4 of SARS-CoV Urbani” value was 0.6, the “Binding of serum 6 to linear peptides of protein X4 of SARS-CoV Urbani” value is given as 0.5 and the “Binding of serum 6 to looped/cyclic peptides of protein X4 of SARS-CoV Urbani” value turned out to be 1.4. Also, in experiment [1], the “Binding of serum 37 to linear peptides of protein X4 of SARS-CoV Urbani” value stood at 0.7, the “Binding of serum 37 to looped/cyclic peptides of protein X4 of SARS-CoV Urbani” value turned out to be 0.7, the “Binding of serum 62 to linear peptides of protein X4 of SARS-CoV Urbani” value was determined as 0.7 and the “Binding of serum 62 to looped/cyclic peptides of protein X4 of SARS-CoV Urbani” value amounted to 0.7. For the same sequence, in experiment [1], the “Binding of serum London to linear peptides of protein X4 of SARS-CoV Urbani” value was 0.7, the “Binding of serum London to looped/cyclic peptides of protein X4 of SARS-CoV Urbani” value is on record as 3.0, the “Binding of serum SARS-green to linear peptides of protein X4 of SARS-CoV Urbani” value stood at 0.5 and the “Binding of serum SARS-green to looped/cyclic peptides of protein X4 of SARS-CoV Urbani” value was 0.5. Moreover, in experiment [1], the “Binding of serum SARS-yellow to linear peptides of protein X4 of SARS-CoV Urbani” value is 0.6 and the “Binding of serum SARS-yellow to looped/cyclic peptides of protein X4 of SARS-CoV Urbani” value is 0.7. In addition, in experiment [2], the “Binding of Control Serum Blood-Bank to Looped peptides” value came out at 0.8, the “Binding of Control serum Blood-bank to linear peptides” value turned out to be 0.6, the “Binding of Control serum LUMC to linear peptides” value is on record as 0.5 and the “Binding of Control serum LUMC to looped peptides” value was 0.7. In experiment [3], the “Rabbit serum linear peptides” value was determined as 0.4 and the “Rabbit serum looped peptides” value was 0.6.
For the sequence IVGLMWLSYFVASFR, in experiment [1], the “Binding of serum 1a to linear peptides of protein M of SARS-CoV Urbani” value was 0.6, the “Binding of serum 1a to looped/cyclic peptides of protein M of SARS-CoV Urbani” value is 0.7, the “Binding of serum 1b to linear peptides of protein M of SARS-CoV Urbani” value is 0.4 and the “Binding of serum 1b to looped/cyclic peptides of protein M of SARS-CoV Urbani” value is listed as 0.5. In addition, in experiment [1], the “Binding of serum 2 to linear peptides of protein M of SARS-CoV Urbani” value is listed as 0.5, the “Binding of serum 2 to looped/cyclic peptides of protein M of SARS-CoV Urbani” value was determined as 1.0, the “Binding of serum 6 to linear peptides of protein M of SARS-CoV Urbani” value is recorded as 0.3 and the “Binding of serum 6 to looped/cyclic peptides of protein M of SARS-CoV Urbani” value is 0.7. Also, in experiment [1], the “Binding of serum 37 to linear peptides of protein M of SARS-CoV Urbani” value is given as 0.5, the “Binding of serum 37 to looped/cyclic peptides of protein M of SARS-CoV Urbani” value is listed as 0.7, the “Binding of serum 62 to linear peptides of protein M of SARS-CoV Urbani” value is reported as 0.7 and the “Binding of serum 62 to looped/cyclic peptides of protein M of SARS-CoV Urbani” value was 0.7. Also, in experiment [1], the “Binding of serum London to linear peptides of protein M of SARS-CoV Urbani” value came to 0.3, the “Binding of serum London to looped/cyclic peptides of protein M of SARS-CoV Urbani” value is on record as 0.2, the “Binding of serum SARS-green to linear peptides of protein M of SARS-CoV Urbani” value is reported as 0.2 and the “Binding of serum SARS-green to looped/cyclic peptides of protein M of SARS-CoV Urbani” value is given as 0.1. Besides, in experiment [1], the “Binding of serum SARS-yellow to linear peptides of protein M of SARS-CoV Urbani” value was 0.1 and the “Binding of serum SARS-yellow to looped/cyclic peptides of protein M of SARS-CoV Urbani” value amounted to 0.6. Besides, in experiment [2], the “Binding of Control Serum Blood-Bank to Looped peptides of the protein M of SARS-CoV Urbani” value came out at 0.7, the “Binding of Control serum Blood-bank to linear peptides of the protein M of SARS-CoV Urbani” value is recorded as 0.5, the “Binding of Control serum LUMC to linear peptides of the protein M of SARS-CoV Urbani” value is 0.2 and the “Binding of Control serum LUMC to looped peptides of the protein M of SARS-CoV Urbani” value is recorded as 0.6. For the same sequence, in experiment [3], the “Rabbit serum linear peptides” value was found to be 0.3 and the “Rabbit serum looped peptides” value was 0.5.
For the sequence IWNLDVIISSIVRQL, in experiment [1], the “Binding of serum 1a to linear peptides of protein X3 of SARS-CoV Urbani” value stood at 0.7, the “Binding of serum 1a to looped/cyclic peptides of protein X3 of SARS-CoV Urbani” value came out at 0.5, the “Binding of serum 1b to linear peptides of protein X3 of SARS-CoV Urbani” value was determined as 0.3 and the “Binding of serum 1b to looped/cyclic peptides of protein X3 of SARS-CoV Urbani” value is reported as 0.4. Further, in experiment [1], the “Binding of serum 2 to linear peptides of protein X3 of SARS-CoV Urbani” value was 0.5, the “Binding of serum 2 to looped/cyclic peptides of protein X3 of SARS-CoV Urbani” value worked out at 0.5, the “Binding of serum 6 to linear peptides of protein X3 of SARS-CoV Urbani” value is given as 0.5 and the “Binding of serum 6 to looped/cyclic peptides of protein X3 of SARS-CoV Urbani” value was determined as 0.6. In experiment [1], the “Binding of serum 37 to linear peptides of protein X3 of SARS-CoV Urbani” value is reported as 0.6, the “Binding of serum 37 to looped/cyclic peptides of protein X3 of SARS-CoV Urbani” value stood at 0.5, the “Binding of serum 62 to linear peptides of protein X3 of SARS-CoV Urbani” value was determined as 0.6 and the “Binding of serum 62 to looped/cyclic peptides of protein X3 of SARS-CoV Urbani” value was determined as 0.4. For the same sequence, in experiment [1], the “Binding of serum London to linear peptides of protein X3 of SARS-CoV Urbani” value is reported as 0.6, the “Binding of serum London to looped/cyclic peptides of protein X3 of SARS-CoV Urbani” value was 0.2, the “Binding of serum SARS-green to linear peptides of protein X3 of SARS-CoV Urbani” value is on record as 0.4 and the “Binding of serum SARS-green to looped/cyclic peptides of protein X3 of SARS-CoV Urbani” value is 0.3. Besides, in experiment [1], the “Binding of serum SARS-yellow to linear peptides of protein X3 of SARS-CoV Urbani” value was 0.2 and the “Binding of serum SARS-yellow to looped/cyclic peptides of protein X3 of SARS-CoV Urbani” value is given as 0.6. Also, in experiment [2], the “Binding of Control Serum Blood-Bank to Looped peptides of the protein X3 of SARS-CoV Urbani” value amounted to 0.7, the “Binding of Control serum Blood-bank to linear peptides of the protein X3 of SARS-CoV Urbani” value was found to be 0.6, the “Binding of Control serum LUMC to linear peptides of the protein X3 of SARS-CoV Urbani” value is reported as 0.5 and the “Binding of Control serum LUMC to looped peptides of the protein X3 of SARS-CoV Urbani” value amounted to 0.7. Also, in experiment [3], the “Rabbit serum linear peptides” value is 0.2 and the “Rabbit serum looped peptides” value was determined as 0.4.

(Values after patent US20070128217A1 (priority 2003, published 2007).)
